Data set [1] in a line: Blood levels of the clavulanate after oral dosing in mice, determined by β-lactamase inhibition assay. Conditions: mouse. Format: in vivo. The source says:
These compounds were adminstered in 10% dimethylformamide/90% olive oil. […]
(§1) An antibacterial assay was used to determine levels of benzyl penicillin in blood samples. A P-lactamase inhibition assay was employed to determine levels of the clavulanate in the samples.

The nature of data set [2]: Blood levels of benzyl penicillin after oral dosing in mice, determined by antibacterial assay. Conditions: mouse, in vivo, 60 mg/kg. As to the method: […] These compounds were adminstered in 10% dimethylformamide/90% olive oil. The dose was equivalent to approximately 62 mg/kg of benzyl penicillin and 38 mg/kg of the clavulanate.
as §1

Molecules are shown by their SMILES.

For the molecule `COC/C=C1\O[C@@H]2CC(=O)N2[C@H]1C(=O)O` [Clavulanic acid methyl ether], in data set [1] (in vivo, 20 mg/kg), the concentration at 0.25 h worked out at 7500 ng/mL, the concentration at 0.5 h came to 3850 ng/mL, the concentration at 1 h was determined as 1500 ng/mL and the concentration at 2 h stood at 200 ng/mL. Besides, the “Blood levels of clavulanic acid methyl ether” value in data set [1] (in vivo, 20 mg/kg, 1.5 h) came to 450 ng/mL.

In data set [2], `CC1(C)S[C@@H]2[C@H](NC(=O)Cc3ccccc3)C(=O)N2[C@H]1C(=O)O` [benzyl penicillin] gave a concentration at 0.25 h of 1390 ng/mL, a concentration at 0.5 h of 1050 ng/mL, a concentration at 0.75 h of 1250 ng/mL and a concentration at 1 h of 620 ng/mL. In addition, in data set [2], the concentration at 1.5 h was 550 ng/mL and the concentration at 2 h was 320 ng/mL. Besides, the “Blood levels of benzyl penicillin” value in data set [2] (0.25 h) is 1390 ng/mL. Moreover, in data set [2] (0.5 h), the “Blood levels of benzyl penicillin” value was found to be 1050 ng/mL. Further, the “Blood levels of benzyl penicillin” value in data set [2] (0.75 h) amounted to 1250 ng/mL. Besides, in data set [2] (1 h), the “Blood levels of benzyl penicillin” value was found to be 620 ng/mL. The “Blood levels of benzyl penicillin” value in data set [2] (1.5 h) was 550 ng/mL. Also, the “Blood levels of benzyl penicillin” value in data set [2] (2 h) was found to be 320 ng/mL.

For `O=C(O)[C@H]1/C(=C/CO)O[C@@H]2CC(=O)N21` [clavulanic acid], the concentration at 0.25 h in data set [1] (blood, mice, clavulanic acid alone at 20 mg/kg, 15' after administration, mean results from several experiments, read-out: Blood levels of clavulanic acid) is 5900 ng/mL. Moreover, the concentration at 0.5 h in data set [1] (blood, mice, clavulanic acid alone at 20 mg/kg, 30' after administration, mean results from several experiments, read-out: Blood levels of clavulanic acid) was 2300 ng/mL. Further, in data set [1] (blood, mice, clavulanic acid alone at 20 mg/kg, 45' after administration, mean results from several experiments), the concentration at 0.75 h turned out to be 1040 ng/mL. The concentration at 1 h in data set [1] (blood, mice, clavulanic acid alone at 20 mg/kg, 60' after administration, mean results from several experiments, read-out: Blood levels of clavulanic acid) was found to be 530 ng/mL. In data set [1] (blood, mice, clavulanic acid alone at 20 mg/kg, 90' after administration, mean results from several experiments), the concentration at 1.5 h stood at 340 ng/mL. Further, the concentration at 2 h in data set [1] (blood, mice, clavulanic acid alone at 20 mg/kg, 120' after administration, mean results from several experiments, read-out: Blood levels of clavulanic acid) is no more than 300 ng/mL.

For the origin of these results see EP0084730A1, “Esters of penicillin derivatives with beta-lactamase inhibitors, their preparation and their use” (BEECHAM GROUP PLC, priority 1982, dated 1983).
